Calls of active or inactive are those of the source.
Key:
[1] = cytotoxicity in HEK-293T cells, dose response, cytotoxicity control for TCR NF-kB inhibitor project, luminescence, T-cell screen hits (AID 489026); format: functional, cell-based;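 further: cells exposed to compound about 14 hours before the viability readout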
[2] = target: T1, Alkaline phosphatase, tissue-nonspecific isozyme (Homo sapiens, UniProt P05186)
T1 sequence (P05186 whole entry): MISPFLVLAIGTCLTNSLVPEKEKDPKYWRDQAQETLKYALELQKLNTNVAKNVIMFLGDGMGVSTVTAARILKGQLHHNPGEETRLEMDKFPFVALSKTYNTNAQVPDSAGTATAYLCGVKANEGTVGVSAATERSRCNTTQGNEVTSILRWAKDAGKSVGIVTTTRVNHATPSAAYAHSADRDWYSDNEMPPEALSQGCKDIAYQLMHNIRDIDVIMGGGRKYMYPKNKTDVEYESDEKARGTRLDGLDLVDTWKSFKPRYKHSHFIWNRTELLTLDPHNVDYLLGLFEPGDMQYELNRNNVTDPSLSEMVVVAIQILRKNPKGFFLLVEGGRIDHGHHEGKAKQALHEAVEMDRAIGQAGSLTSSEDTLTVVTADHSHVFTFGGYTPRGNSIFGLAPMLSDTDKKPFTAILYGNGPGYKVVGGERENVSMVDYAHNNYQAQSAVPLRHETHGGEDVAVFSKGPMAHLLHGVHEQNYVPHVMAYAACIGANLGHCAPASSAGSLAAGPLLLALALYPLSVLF

[3] = target: T2, Eukaryotic translation initiation factor 2-alpha kinase 3 (Homo sapiens, UniProt Q9NZJ5); experiment: Counterscreen assay for PERK inhibitors: Dose response cell-based high throughput screening assay to measure inhibition of PERK at 6 hours. [Related pubchem assays: 1522, 1416 ]; format: functional
[4] = target: T2, Eukaryotic translation initiation factor 2-alpha kinase 3; experiment: Dose response cell-based high-throughput screening assay to measure PERK inhibition. [Related pubchem assays: 1416 ]; format: functional
[5] = test system: INS1; experiment: beta cell apoptosis inhibitors, cytokine rescue, dose response, luminescence, retest (AID 449756); format: functional, cell-based; settings: Rattus norvegicus;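 further: cell death triggered by IL-1 beta plus TNF-alpha plus IFN-gamma mixture; protective hits raise ATP signal compared with cytokine alone wells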
[6] = A cytotoxicity screen of small molecule inhibitors of the PhoP region in Salmonella typhi identified in the primary screen. [Related pubchem assays: 1850, 1864, 1985 ]; format: functional
[7] = polyadenylation inhibitors in yeast reporter, dose response, luminescence, S. cerevisiae SKY197-pL101 (AID 2525); format: functional, cell-based
[8] = S. cerevisiae growth inhibition, dose response, counter-screen for polyadenylation inhibitor project, Alamar Blue fluorescence, MIC (AID 2693); format: functional; settings: Saccharomyces cerevisiae
[9] = Luminescence Cell-Based Dose Confirmation HTS to Identify Inhibitors of Polyadenylation.; format: functional
[10] = target: Large T antigen (Simian virus 40, UniProt P03070); format: functional, Betapolyomavirus macacae;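 further: Confirmatory-stage PubChem screen for compounds that inhibit SV40 T antigen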
[11] = target: T3, Heat shock factor protein 1 (Mus musculus, UniProt P38532); experiment: HSF1 potentiators in luciferase reporter cells, confirmation, cell-based, NIH3T3, luminescence, dose retest (AID 435004); format: functional;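 further: stress induced by proteasome inhibitor MG132 added 30 min after compound; luciferase reporter driven by HSF1 response element in NIH3T3 cells; actives raise luminescence as potentiators of the MG132 stress response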
T3 sequence (P38532 whole entry): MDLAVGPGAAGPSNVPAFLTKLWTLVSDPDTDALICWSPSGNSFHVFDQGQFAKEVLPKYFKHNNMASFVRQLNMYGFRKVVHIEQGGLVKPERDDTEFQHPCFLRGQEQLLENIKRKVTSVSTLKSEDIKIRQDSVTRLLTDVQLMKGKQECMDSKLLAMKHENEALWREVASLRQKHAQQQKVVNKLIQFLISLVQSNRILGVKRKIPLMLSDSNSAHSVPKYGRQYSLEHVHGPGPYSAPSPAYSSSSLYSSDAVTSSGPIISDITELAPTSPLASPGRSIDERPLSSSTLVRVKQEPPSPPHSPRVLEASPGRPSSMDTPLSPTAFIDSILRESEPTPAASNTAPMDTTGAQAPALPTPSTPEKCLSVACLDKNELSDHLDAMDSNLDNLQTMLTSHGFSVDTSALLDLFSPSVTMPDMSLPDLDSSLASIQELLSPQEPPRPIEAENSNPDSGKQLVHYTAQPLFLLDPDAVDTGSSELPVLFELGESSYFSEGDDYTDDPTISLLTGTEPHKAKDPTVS

[12] = THP-1 cell cytotoxicity, dose response, cytotoxicity control for non-replicating M. tuberculosis project (AID 489025); format: functional
[13] = Vero E6 cell cytotoxicity, dose response, cytotoxicity control for non-replicating M. tuberculosis project, secondary assay (AID 492998); format: functional, VeroE6; settings: Vero C1008
[14] = target: T4, Sphingosine 1-phosphate receptor 4 (Homo sapiens, UniProt O95977); experiment: Fluorescence dose response cell-based high throughput screening assay for antagonists of the Sphingosine 1-Phosphate Receptor 4 (S1P4). [Related pubchem assays: 1524 (Confirmation in triplicates.), 1510 (Primary screen.)]; format: functional
T4 sequence (O95977 whole entry): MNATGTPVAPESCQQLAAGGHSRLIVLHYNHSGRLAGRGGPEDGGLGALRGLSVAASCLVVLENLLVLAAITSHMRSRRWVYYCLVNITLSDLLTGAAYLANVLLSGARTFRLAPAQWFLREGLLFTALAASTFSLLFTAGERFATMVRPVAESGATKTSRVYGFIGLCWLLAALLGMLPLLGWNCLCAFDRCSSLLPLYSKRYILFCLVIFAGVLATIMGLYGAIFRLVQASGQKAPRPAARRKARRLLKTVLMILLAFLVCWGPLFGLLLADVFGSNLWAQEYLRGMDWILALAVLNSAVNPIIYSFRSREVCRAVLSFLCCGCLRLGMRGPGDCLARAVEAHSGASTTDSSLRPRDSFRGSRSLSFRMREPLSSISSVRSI

[15] = microbe, parasite or virus in culture; format: functional; settings: Mycobacterium tuberculosis
[16] = HepG2 cell cytotoxicity, dose response, cytotoxicity control for non-replicating M. tuberculosis project (AID 489018); format: functional; settings: Mycobacterium tuberculosis
[17] = Shn3 3'UTR reporter inhibitors, dose response, cell-based, Clone20 osteoblasts, firefly luciferase, cherry-picked (AID 624132); format: functional;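 further: firefly luciferase luminescence from reporter carrying the Shn3 3'UTR in osteoblasts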
[18] = target: Sphingosine 1-phosphate receptor 1 (Homo sapiens, UniProt P21453); format: functional;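 further: Tango beta-arrestin reporter U2OS cells stimulated with S1P near its EC80; inhibitor potency meaning antagonism of receptor activation by the natural agonist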
[19] = growth suppression of PTEN-null colon cells, dose response, cell-based, HCT116 PTEN knockout (AID 1047); format: functional;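 further: HCT116 colon tumor cells with PTEN knocked out; cells exposed to compound for 60 hours before readout; potency for loss of cell viability measured by luminescence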
[20] = cytotoxicity in HPDE-C7 cells, cell-based, fluorescence, HTS (AID 430); format: functional; settings: Homo sapiens
[21] = cells; format: functional
[22] = test system: Streptococcus; experiment: Group A Streptococcus viability loss, dose response, counter-screen for streptokinase expression inhibitor project, luminescence, BacTiterGlo (AID 1915); format: functional, organism-based;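 further: potency for reduction of bacterial viability or growth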
[23] = test system: Streptococcus sp. 'group A'; experiment: growth inhibition of control SK(-) GAS strain, dose response, counter-screen for streptokinase expression inhibitor project, luminescence, kanamycin, BacTiterGlo, confirmation (AID 1900); format: functional, organism-based
[24] = cytotoxicity in KRAS-transformed pancreatic duct cells, primary screen, cell-based, fluorescence, HTS (AID 431); format: functional; settings: Homo sapiens;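 further: cell line used: HPDE-C7K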
[25] = HepG2 cell cytotoxicity, dose response, cytotoxicity control for Shn3 inhibitor project, CellTiter-Glo, cherry-picked (AID 624134); format: functional, cell-based
[26] = growth suppression of beta-catenin-knockout colon cells, dose response, cell-based, HCT116, human colon tumor (AID 1045); format: functional;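 further: HCT116 colon tumor cells with beta catenin knocked out; cells exposed to compound for 60 hours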
[27] = enhancers of respiration in Yfh1-depleted yeast, dose response, Friedreich's ataxia, plus single-dose screen (AID 1465); format: functional;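 further: yeast depleted of Yfh1p frataxin homolog grown on glycerol needing respiration; WST-1 tetrazolium dye reduction as measure of cellular dehydrogenase metabolic activity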
[28] = target: Serine/threonine-protein phosphatase (Homo sapiens, UniProt Q9BPW0); experiment: Counterscreen for inhibitors of PP1: fluorescence-based biochemical high throughput dose response assay to identify inhibitors of Protein Phosphatase 5 (PP5). [Related pubchem assays: 2034 (Summary (PP5 inhibitors)), 1987 (PP5 inhibitors in singlate), 2235 (PP1 inhibitors in singlate)]
[29] = target: Serine/threonine-protein phosphatase PP1-alpha catalytic subunit (Homo sapiens, UniProt P62136); experiment: PP1 phosphatase inhibitors, dose response, biochemical, fluorescence (AID 2403);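 further: phosphatase turnover of OMFP into fluorescent 3-O-methylfluorescein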
[30] = target: Vasopressin V1a receptor (Homo sapiens, UniProt P37288); experiment: Counterscreen for Oxytocin Receptor (OXTR) agonists: Fluorescence-based cell-based high throughput dose response assay to identify agonists of the vasopressin 1 receptor (V1R). [Related pubchem assays: 2435 (Primary screen (OXTR agonists in singlicate)), 434991 (Counterscreen (V1R agonists in triplicate)), 2482 (Summary (OXTR agonists)) …; format: functional
[31] = target: Oxytocin receptor (Homo sapiens, UniProt P30559); experiment: Fluorescence-based cell-based high throughput dose response assay for agonists of the Oxytocin Receptor (OXTR). [Related pubchem assays: 2435 (Primary screen (OXTR agonists in singlicate)), 434991 (Counterscreen (V1R agonists in triplicate)), 2482 (Summary (OXTR agonists)), 434963 (Confirmation screen (OXTR agonists in triplicate))]; format: functional
[32] = target: Cytochrome P450 2C19 (Homo sapiens, UniProt P33261); experiment: Cytochrome panel assay with activity outcomes. Panel member name: p450-cyp2c19 Compounds with AC50 equal or less than 10 uM are considered active; format: functional; settings: read-out: AC50
[33] = target: Voltage-gated inwardly rectifying potassium channel KCNH2 (Homo sapiens, UniProt Q12809); settings: Potency;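 further: confirmatory quantitative high-throughput screen measuring inhibition of hERG channel activity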
[34] = target: T5, Cytochrome P450 2D6 (Homo sapiens, UniProt P10635); experiment: qHTS Assay for Inhibitors and Substrates of Cytochrome P450 2D6. [Related pubchem assays: 410 ]; format: ADME; settings: read-out: Potency
[35] = target: T5, Cytochrome P450 2D6

T2 sequence (Q9NZJ5 whole entry): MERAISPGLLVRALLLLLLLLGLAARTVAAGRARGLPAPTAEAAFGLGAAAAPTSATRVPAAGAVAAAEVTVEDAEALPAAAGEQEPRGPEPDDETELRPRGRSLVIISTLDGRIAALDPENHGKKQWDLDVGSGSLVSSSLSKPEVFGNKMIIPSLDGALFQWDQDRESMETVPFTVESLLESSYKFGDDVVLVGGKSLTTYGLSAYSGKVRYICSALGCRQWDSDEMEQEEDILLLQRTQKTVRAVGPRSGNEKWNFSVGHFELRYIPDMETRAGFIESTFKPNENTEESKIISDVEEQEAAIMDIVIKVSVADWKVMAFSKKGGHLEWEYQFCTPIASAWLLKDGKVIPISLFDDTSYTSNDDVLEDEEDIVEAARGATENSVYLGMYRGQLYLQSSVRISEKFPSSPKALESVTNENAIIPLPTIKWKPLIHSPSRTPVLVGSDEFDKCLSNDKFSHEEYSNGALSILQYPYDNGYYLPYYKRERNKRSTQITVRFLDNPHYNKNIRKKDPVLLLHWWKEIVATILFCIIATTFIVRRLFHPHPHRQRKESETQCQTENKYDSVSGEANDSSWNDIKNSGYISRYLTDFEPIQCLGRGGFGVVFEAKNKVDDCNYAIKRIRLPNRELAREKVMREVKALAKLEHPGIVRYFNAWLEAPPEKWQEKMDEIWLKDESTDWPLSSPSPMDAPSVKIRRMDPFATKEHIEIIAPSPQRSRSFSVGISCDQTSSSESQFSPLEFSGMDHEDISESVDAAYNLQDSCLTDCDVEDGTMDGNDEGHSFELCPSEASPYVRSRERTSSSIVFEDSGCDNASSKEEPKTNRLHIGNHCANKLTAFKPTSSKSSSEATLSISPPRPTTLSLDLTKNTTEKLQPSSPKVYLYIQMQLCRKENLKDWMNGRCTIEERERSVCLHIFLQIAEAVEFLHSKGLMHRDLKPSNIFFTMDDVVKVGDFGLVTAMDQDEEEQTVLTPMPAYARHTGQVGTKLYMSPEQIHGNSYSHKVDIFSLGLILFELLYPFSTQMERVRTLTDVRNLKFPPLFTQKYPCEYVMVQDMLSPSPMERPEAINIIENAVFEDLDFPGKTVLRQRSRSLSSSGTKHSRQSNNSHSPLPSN
T5 sequence (P10635 whole entry): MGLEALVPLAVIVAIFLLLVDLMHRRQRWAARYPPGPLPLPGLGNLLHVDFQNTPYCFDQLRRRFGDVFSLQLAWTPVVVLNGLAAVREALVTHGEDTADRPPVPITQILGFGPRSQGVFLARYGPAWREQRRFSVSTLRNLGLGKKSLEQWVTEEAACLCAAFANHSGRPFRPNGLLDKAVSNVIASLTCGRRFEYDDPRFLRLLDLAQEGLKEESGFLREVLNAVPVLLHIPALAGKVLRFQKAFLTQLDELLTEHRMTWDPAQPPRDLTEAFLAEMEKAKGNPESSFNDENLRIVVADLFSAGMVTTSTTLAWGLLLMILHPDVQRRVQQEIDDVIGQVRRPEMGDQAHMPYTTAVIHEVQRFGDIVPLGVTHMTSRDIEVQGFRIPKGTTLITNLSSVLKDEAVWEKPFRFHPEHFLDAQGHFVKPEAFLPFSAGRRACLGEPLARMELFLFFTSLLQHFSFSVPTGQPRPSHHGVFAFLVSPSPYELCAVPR
Chain of Serine/threonine-protein phosphatase (Q9BPW0 whole entry): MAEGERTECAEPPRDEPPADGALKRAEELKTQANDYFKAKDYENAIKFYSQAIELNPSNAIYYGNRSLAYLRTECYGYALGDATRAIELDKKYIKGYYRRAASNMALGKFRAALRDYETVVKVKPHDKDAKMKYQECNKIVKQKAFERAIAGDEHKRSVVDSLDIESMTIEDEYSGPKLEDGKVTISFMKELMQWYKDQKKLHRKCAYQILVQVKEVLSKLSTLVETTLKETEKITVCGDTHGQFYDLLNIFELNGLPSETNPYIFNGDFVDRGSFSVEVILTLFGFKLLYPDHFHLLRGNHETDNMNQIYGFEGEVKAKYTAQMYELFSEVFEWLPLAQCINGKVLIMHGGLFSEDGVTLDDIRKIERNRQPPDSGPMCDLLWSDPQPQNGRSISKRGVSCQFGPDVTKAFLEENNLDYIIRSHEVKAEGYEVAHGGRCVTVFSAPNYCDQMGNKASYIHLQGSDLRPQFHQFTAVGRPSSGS
Chain of Sphingosine 1-phosphate receptor 1 (P21453 whole entry): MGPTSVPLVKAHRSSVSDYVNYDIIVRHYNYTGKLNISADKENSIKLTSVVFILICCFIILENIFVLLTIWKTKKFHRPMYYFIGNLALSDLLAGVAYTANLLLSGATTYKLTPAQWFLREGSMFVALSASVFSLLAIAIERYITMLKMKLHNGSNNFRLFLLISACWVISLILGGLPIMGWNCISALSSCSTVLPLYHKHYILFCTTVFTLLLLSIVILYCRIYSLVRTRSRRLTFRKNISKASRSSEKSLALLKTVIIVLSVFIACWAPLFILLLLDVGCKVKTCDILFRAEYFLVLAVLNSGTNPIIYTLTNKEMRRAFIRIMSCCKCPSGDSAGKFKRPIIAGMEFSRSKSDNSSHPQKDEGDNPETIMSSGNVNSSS
Chain of Serine/threonine-protein phosphatase PP1-alpha catalytic subunit (P62136 whole entry): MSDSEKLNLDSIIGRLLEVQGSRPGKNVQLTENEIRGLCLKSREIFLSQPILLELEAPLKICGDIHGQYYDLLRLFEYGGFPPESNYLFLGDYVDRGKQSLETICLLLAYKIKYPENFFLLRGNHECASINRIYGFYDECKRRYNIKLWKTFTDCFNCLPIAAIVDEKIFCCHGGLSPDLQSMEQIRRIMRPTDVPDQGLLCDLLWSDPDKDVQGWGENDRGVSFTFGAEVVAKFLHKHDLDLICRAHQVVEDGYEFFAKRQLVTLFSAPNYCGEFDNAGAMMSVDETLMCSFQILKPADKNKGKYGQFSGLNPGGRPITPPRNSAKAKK
Chain of Oxytocin receptor (P30559 whole entry): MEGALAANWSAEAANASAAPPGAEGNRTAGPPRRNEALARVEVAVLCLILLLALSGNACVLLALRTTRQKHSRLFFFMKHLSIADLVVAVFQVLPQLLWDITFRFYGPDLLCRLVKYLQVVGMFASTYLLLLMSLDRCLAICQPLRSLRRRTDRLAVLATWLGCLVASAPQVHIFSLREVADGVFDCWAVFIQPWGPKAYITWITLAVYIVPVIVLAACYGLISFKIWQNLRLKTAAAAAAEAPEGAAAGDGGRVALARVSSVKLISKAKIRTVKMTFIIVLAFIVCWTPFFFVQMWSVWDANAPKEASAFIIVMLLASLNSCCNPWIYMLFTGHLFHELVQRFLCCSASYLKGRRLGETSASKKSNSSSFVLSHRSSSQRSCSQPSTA
Chain of Cytochrome P450 2C19 (P33261 whole entry): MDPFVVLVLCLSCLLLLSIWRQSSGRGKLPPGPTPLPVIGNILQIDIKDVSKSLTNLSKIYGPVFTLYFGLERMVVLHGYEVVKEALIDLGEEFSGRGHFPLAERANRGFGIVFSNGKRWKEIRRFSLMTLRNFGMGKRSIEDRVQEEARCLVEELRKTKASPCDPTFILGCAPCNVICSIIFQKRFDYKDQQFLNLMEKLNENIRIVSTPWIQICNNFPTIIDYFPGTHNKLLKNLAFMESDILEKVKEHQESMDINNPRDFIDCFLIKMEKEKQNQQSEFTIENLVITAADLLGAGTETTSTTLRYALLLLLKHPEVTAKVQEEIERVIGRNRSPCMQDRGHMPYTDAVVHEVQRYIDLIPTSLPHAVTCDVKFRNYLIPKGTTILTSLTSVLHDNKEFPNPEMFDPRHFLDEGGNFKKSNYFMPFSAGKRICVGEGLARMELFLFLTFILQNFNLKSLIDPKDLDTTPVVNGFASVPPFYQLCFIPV
Chain of Voltage-gated inwardly rectifying potassium channel KCNH2 (Q12809 whole entry): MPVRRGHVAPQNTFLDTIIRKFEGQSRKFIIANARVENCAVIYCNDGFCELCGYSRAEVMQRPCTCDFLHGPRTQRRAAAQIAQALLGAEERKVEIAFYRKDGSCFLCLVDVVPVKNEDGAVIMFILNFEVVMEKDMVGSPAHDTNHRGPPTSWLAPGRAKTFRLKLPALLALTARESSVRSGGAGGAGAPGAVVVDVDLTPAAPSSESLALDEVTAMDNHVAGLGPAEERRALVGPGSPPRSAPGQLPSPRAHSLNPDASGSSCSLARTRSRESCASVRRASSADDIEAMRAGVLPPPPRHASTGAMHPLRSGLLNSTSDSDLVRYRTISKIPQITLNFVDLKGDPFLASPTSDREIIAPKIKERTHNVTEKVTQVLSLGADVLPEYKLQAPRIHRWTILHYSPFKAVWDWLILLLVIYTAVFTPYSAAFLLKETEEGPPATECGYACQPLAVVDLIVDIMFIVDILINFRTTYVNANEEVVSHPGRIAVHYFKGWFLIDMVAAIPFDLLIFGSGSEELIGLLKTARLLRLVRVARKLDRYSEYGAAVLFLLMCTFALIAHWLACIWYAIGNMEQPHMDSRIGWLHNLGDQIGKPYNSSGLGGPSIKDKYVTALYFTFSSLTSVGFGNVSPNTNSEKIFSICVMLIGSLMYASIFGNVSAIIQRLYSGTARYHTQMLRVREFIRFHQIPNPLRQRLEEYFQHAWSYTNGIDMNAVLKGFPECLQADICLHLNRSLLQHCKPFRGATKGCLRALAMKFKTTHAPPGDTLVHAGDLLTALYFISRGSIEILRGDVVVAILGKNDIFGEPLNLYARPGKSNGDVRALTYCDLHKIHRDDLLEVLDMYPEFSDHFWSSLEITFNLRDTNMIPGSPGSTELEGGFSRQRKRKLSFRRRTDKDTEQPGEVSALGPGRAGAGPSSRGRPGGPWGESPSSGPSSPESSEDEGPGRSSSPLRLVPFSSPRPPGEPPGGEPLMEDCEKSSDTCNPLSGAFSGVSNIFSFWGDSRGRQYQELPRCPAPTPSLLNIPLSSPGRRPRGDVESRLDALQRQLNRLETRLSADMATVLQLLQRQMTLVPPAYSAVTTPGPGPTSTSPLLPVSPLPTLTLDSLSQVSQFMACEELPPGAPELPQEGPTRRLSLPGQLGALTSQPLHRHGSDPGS

## CCOC(=O)c1ccc2nc(Nc3nc4ccc(F)cc4s3)sc2c1
[1]
  IC50: > 80 µM (inactive)
[2]
  EC50: 33.6 µM (active)

## COCCNC(=O)c1cnn2c(O)cc(C3CCN(C(=O)OC(C)(C)C)CC3)nc12
[3]
  EC50: > 55.7 µM (not active)
[4]
  EC50: > 55.7 µM (not active)

## O=C(c1ccc2c(c1)nc(S)n1c3ccccc3nc21)N1CCN(c2cccc(Cl)c2)CC1
[5]
  AC50: 8.62 µM (active)
[6]
  EC50: > 50 µM (active)

## COc1cc(/C=C2\SC(=S)N(NC(=O)c3cccnc3)C2=O)ccc1O
[7]
  EC50: 103 µM (active)
[8]
  MIC: > 37 µM (inconclusive)
[9]
  EC50: 9.9 µM (active)
[10]
  IC50: 8.49 µM (active)

## Cc1ccc(S(=O)(=O)Nc2cccc3ncccc23)s1
[11]
  EC50: 3.91 µM (active)
[12]
  CC50: 6.44 µM (active)
[13]
  CC50: 4.2 µM (active)
[14]
  IC50: 0.611 µM (active)
[15]
  CC50: 6.47 µM (active)
[16]
  CC50: 6.97 µM (active)
[17]
  AC50: 3.85 µM (active)
[18]
  IC50: 1.19 µM (active)
[19]
  EC50: 1.73 µM (active)
[20]
  EC50: 11.3 µM (active)
[21]
  IC50: 2.01 µM (active)
[22]
  EC50: 10.1 µM (active)
[23]
  EC50: 1.78 µM (active)
[24]
  EC50: 10.3 µM (active)
[25]
  AC50: 9.75 µM (active)
[26]
  EC50: 1.46 µM (active)

## CCOC(=O)/C(C#N)=C/C=C1/C=CC=CN1C
[27]
  EC50: > 100 µM (active)

## Cc1ccc(-n2nc(C(=O)O)cc2-c2ccc(Cl)cc2)cc1
[28]
  IC50: > 67 µM (not active)
[29]
  IC50: 9.65 µM (active)

## CC(Oc1ccc(F)cc1)C(=O)Nc1ccc(S(=O)(=O)NC2=NCCCCC2)cc1 (stereo not given)
[30]
  EC50: > 29.9 µM (not active)
[31]
  EC50: > 29.9 µM (not active)

## O=C(CCc1ccc(O)cc1)c1c(O)cc(O)cc1O [PHLORETIN]
[32]
  AC50: 20 µM (inconclusive)
[33]
  AC50: 12.6 µM (inconclusive)
[34]
  AC50: 25.1 µM (inconclusive)
[35]
  AC50: 39.8 µM (inconclusive)

Reference: ChEMBL document CHEMBL1201862, “PubChem BioAssay data set” (2004)
